The source of these data is PubChem BioAssay AID179 (DTP/NCI, 2004).

A word on the pEC50: it is the EC50 on a negative log10 scale, so that one unit is a factor of ten. The term pIC50 denotes the negative decadic logarithm of the IC50, by convention in mol/L. Higher therefore signals a small IC50.

The test system of this assay is CEM cells HIV-1 protection, formazan growth assay. The assay can be described thus: NCI AIDS Antiviral Assay. The settings on record: for pIC50: measured here: growth of uninfected CEM cells. The essentials:
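Protection of CEM cells against HIV-1 was scored from cell growth (soluble formazan) across five concentrations, with parallel uninfected cells. Lack of protection may reflect toxicity.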

pEC50, pIC50: −log10 of the molar value. The source made the active and inactive calls.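 Rule for the calls: active = compounds giving half or more protection of infected cells from virus-caused growth loss, again on retest; inactive = the rest.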

In the case of `NS(=O)(=O)c1cc2c(cc1Cl)NC=NS2(=O)=O`, the pEC50 is below 3.07 and the pIC50 was below 3.07.
Consider `COc1ccc2cc1-c1cc(ccc1O)CC1NCCc3cc4c(cc31)Oc1c(c(OC)c(OC)c3c1[C@H](C2)N(C)CC3)O4` (stereo partly drawn), for which the pEC50 is below 5.22 and the pIC50 was below 5.22.
In the case of `O=C(N/N=C(/c1ccccc1)C(F)(F)F)c1ccncc1`, the pEC50 is below 3.70 and the pIC50 is below 3.70.
With `Cc1ccc(/C=C2\CCS(=O)(=O)c3ccccc3C2=O)cc1`, the pEC50 is below 3.70 and the negative logarithm of the IC50 (pIC50) is 5.01.
On to `COc1nc(=O)n(C2CC(F)C(CO)O2)cc1C` (stereo not drawn), for which the pEC50 is 4.10 and the negative logarithm of the IC50 (pIC50) was below 3.70.
Turning to `CC(C)CCCC(C)[C@H]1CCC2C3CCC4C[C@@H](CCCC(c5cc(Cl)c(O)c(C(=O)O)c5)c5cc(Cl)c(O)c(C(=O)O)c5)CC[C@]4(C)C3CC[C@@]21C` (stereo partly drawn), the pEC50 is 5.05 and the pIC50 was below 3.70.
As for `Cn1c([C@H](C#N)c2ncccc2[N+](=O)[O-])nc2ccccc21`, the pEC50 was below 3.70 and the pIC50 was 3.96.
For the compound `COc1ccc2c(c1)c(OC)c(CC(O)C(C)(C)O)c(=O)n2C` (stereo not drawn), the pEC50 was below 3.70 and the negative-log IC50 (pIC50) was below 3.70.
As for `CC12NN=NC1C(=O)NC2=O` (stereo not drawn), the pEC50 is below 3.70 and the negative logarithm of the IC50 (pIC50) is below 3.70.
For `CC(=O)C1C(=O)C(=O)N(c2ccc([N+](=O)[O-])cc2)C1=O` (stereo not drawn), the pEC50 was below 3.70 and the pIC50 was below 3.70.
As for `CC(=O)n1nc(C)c(-c2onc3ccc(Cl)cc23)c1C`, the pEC50 was 4.39 and the pIC50 was 4.35.
On to `CCCc1cc(=O)oc2c3c(cc(OC(C)C)c12)O[C@@H](C)[C@H](C)[C@H]3O`, for which the pEC50 was below 3.70 and the negative-log IC50 (pIC50) is 4.93.
For `CC(=O)OCCCCCn1cnc(C(N)=O)c1N`, the pEC50 is below 3.70 and the pIC50 is below 3.70.
With `Cc1ccc(-c2cc(O)c3nc4ccccc4n3c2)cc1`, the pEC50 is below 3.70 and the negative logarithm of the IC50 (pIC50) was below 3.70.
As to `O=C(c1ccccc1)c1nc2ccc(Cl)cc2c2c1CCCO2`, the pEC50 was below 4.79 and the pIC50 was below 4.79.
In the case of `Cc1ccc(N/N=C/C2=CC(C)(C)C(C#N)(C#N)C(O)=C2C#N)cc1`, the pEC50 was below 3.70 and the pIC50 was 5.18.
`C[C@]12CC[C@H](O)CC1=CC[C@@H]1[C@@H]2CC[C@]2(C)/C(=N/OCCN3CCCC3)CC[C@@H]12`: the pEC50 is below 3.70 and the negative-log IC50 (pIC50) is 5.03.
In the case of `O=C(O)CN(c1cccc(Cl)c1)S(=O)(=O)c1ccccc1`, the result was inactive.
`N#CCCCCn1cnc2c(N)ncnc21`: the pEC50 was below 3.70 and the pIC50 is below 3.70.
For the compound `CSc1sc2ccccc2[s+]1`, the outcome was inactive.
`O=c1c(SCc2ccccc2)c(N2CCOCC2)cnn1-c1ccccc1`: the pEC50 is below 3.18 and the pIC50 is 3.24.
For `Nc1c(N=Nc2ccc([N+](=O)[O-])cc2)c(S(=O)(=O)O)cc2cc(S(=O)(=O)O)c(N=Nc3ccc(-c4ccc(N=Nc5ccc(O)cc5)cc4)cc3)c(O)c12`, the pEC50 is below 4.00 and the pIC50 was 4.82.
In the case of `COc1cc(C(=O)NCCS(=O)(=O)O)cc(OC)c1OC`, the pEC50 was below 3.14 and the negative logarithm of the IC50 (pIC50) was 3.20.
With `COC(=O)NCC(OCc1cc2c(cc1I)OCO2)C1=CCCCC1` (stereo not drawn), the pEC50 is below 4.53 and the negative-log IC50 (pIC50) is below 4.53.
Consider `O=c1[nH]nc(-c2cccc([N+](=O)[O-])c2)[nH]1`, for which the pEC50 is below 3.70 and the negative-log IC50 (pIC50) is 3.83.
Take `CC(=O)CC(C)=O.CC(=O)CC(C)=O.[O]=[V]`: the outcome was inactive.
In the case of `NC(CCOCCP(=O)(O)O)C(=O)O` (stereo not drawn), the pEC50 is below 3.70 and the negative logarithm of the IC50 (pIC50) was below 3.70.
Regarding `O=C1OCC(Cc2ccc(O)c(O)c2)[C@H]1Cc1ccc(O)c(O)c1` (stereo partly drawn), the pEC50 was below 3.70 and the pIC50 is 4.72.
